Reference: publication PMC6145916, “Interaction of mitochondrial fission factor with dynamin related protein 1 governs physiological mitochondrial function in vivo” (Scientific Reports, 2018)
Where no end group is shown, it is not given here.

Assays:
MFF knockout MEFs = assay: Mitochondrial ROS (MitoSox), MFF knockout MEFs; format: cell-based, mouse; conditions: 4 µM P259 daily for three days, vs no peptide; 3 independent experiments, three technical replicates; ns p = 0.23
Text: (§1) Data are of 3 independent experiments with the whiskers calculated by the Turkey method. e. […]
(§2) production in an Mff -dependent manner. Mitochondrial reactive oxygen species production […]
(§3) treatment in each cell line. […]
(§4) determined by an unpaired, two -tailed t test). g. […]
(§5) control (no peptide treatment). Data are mean ± s.e. from 3 independent experiments.
(§6) Mitochondrial reactive oxygen species determination […]
(§7) and 1% penicillin-streptomycin solution (Corning, NY, USA). […]
(§8) and without phenol red. […] After incubation
(§9) HEPES, and without phenol red. […]
(§10) epifluorescence microscope with a 10X objective (Keyence). The Cy5 filter (Keyence) was used to autofocus on the mitochondria plane. […]
(§11) calculated as the average MitoSox signal per cell. […]

wild-type MEFs = assay: Mitochondrial ROS (MitoSox), WT MEFs; format: cell-based, mouse; conditions: 4 µM P259 daily for three days, vs no peptide; 3 independent experiments, three technical replicates; *** p <0.001
Text: as §1, §2, §3, §4, §5, §6, §7, §8, §9, §10, §11

Mff-Drp1 interaction = assay: Co-immunoprecipitation of recombinant Drp1 with Mff; format: binding, human; conditions: 1 µM P259, 2 hours at 4 °C, 200 ng Drp1, 200 ng adaptor, RIPA buffer; representative blot of two independent experiments
Text: Figure 1 Rational peptide design identifies a novel inhibitor of the Mff-Drp1 protein-protein interaction. (a) A scheme of the rationale behind the inhibitor design. […] Surface and ribbon diagrams of Drp1 structure (PDB, 4BEJ) with the GTPase, bundle signaling element (BSE), and stalk domains highlighted. (d) A heatmap representing sequence conservation of human proteins that contain a region similar to P259. Sequence conservation corresponds to the number of residues similar/identical to P259 from each sequence. […] The obtained graph is of the mean standardized response and ± s.e. as a function of time for n = 3 individual experiments, with 3 technical replicates each. […]
Protein binding to the surface was obtained through current measurements during a voltage sweep by a potentiostat. […] After calibration with 30 µL RIPA buffer for 3 minutes, […] of 100 nM protein was incubated over the surface for 3 minutes as sensor response w as measured. Disso ciation was measured by re-applying 30 µL of RIPA buffer. […]
The standardized response value was calculated by the following equation: […]
KD values were subsequently calculated using the binding and dissociation curves and the analysis software provided by the manufacturer (Nanomedical Diagnostics). […]
Protein content was measured using Bradford protein assay dye (Bio-Rad, CA, USA) and subsequently standardized. […]

## YGRKKRRQRRRGSGIIQLPEIVVV-NH2 (C-terminus assumed) [P259]
MFF knockout MEFs
  effect on mitochondrial ROS levels, Mff knockout MEFs: insensitive
wild-type MEFs
  mitochondrial ROS production, WT MEFs: increases mitochondrial ROS
Mff-Drp1 interaction
  Mff binding to co-immunoprecipitated recombinant Drp1: abolished Mff binding
